Data from ChEMBL document CHEMBL5370618, “Hypoxia-Directed and Self-Immolative Theranostic Agent: Imaging and Treatment of Cancer and Bacterial Infections” (J Med Chem, 2023).
Activity calls are given as the source filed them. No cut-off for these calls is given here.

Assays:
[1] = Prodrug conversion in Bacillus subtilis assessed as nitroreductase mediated drug degradation by measuring increase in fluorescence intensity at 10 uM by fluorescence analysis; type: ADME
[2] = Prodrug conversion in PBS at pH 7.4 assessed as Escherichia coli nitroreductase mediated drug degradation by measuring increase in maximum absorption at 522nm at 5 uM in presence of NADH as cofactor by UV-Vis spectroscopic analysis; type: ADME; details: isolated protein, pH 7.4, 5 µM
[3] = Biodistribution in tumor of BALB/c mouse xenografted with human hypoxic A549 cells assessed as drug uptake at 2.5 mg/kg,iv and measured after 29 hrs by fluorescence imaging analysis; type: ADME, organism-based, Neoplasm; details: in vivo
[4] = test system: Bacillus subtilis; assay: Antibacterial activity against Bacillus subtilis assessed as reduction in bacterial cell viability at 250 to 500 uM incubated for 24 hrs by CFU assay; type: functional, organism-based; details: dose 250-500 µM
[5] = Prodrug conversion in Escherichia coli assessed as nitroreductase mediated drug degradation by measuring increase in fluorescence intensity at 10 uM by fluorescence analysis relative to control; type: ADME
[6] = test system: Escherichia coli; assay: Antibacterial activity against Escherichia coli assessed as reduction in bacterial cell viability at 250 to 500 uM incubated for 24 hrs by CFU assay; type: functional, organism-based; details: dose 250-500 µM
[7] = Prodrug conversion in BALB/c mouse xenografted with human hypoxic A549 cells assessed as rhodamine release by measuring increase in fluorescence intensity in tumor at 2.5 mg/kg,iv and measured after 29 hrs by fluorescence imaging analysis; type: ADME, organism-based; details: in vivo
[8] = Prodrug conversion in human serum assessed as Fe2+ ion mediated drug degradation by measuring fluorescence production at 10 uM incubated for 30 mins by fluorescence spectroscopic analysis; type: ADME, cell-free; details: 0.5 h
[9] = Prodrug conversion in human serum assessed as NO3- ion mediated drug degradation by measuring fluorescence production at 10 uM incubated for 30 mins by fluorescence spectroscopic analysis; type: ADME, cell-free; details: 0.5 h
[10] = Prodrug conversion in human serum assessed as Fe3+ ion mediated drug degradation by measuring fluorescence production at 10 uM incubated for 30 mins by fluorescence spectroscopic analysis; type: ADME, cell-free; details: 0.5 h
[11] = Prodrug conversion in PBS at 7.4 assessed as Escherichia coli nitroreductase mediated drug degradation by measuring rhodamine metabolite formation at 10 uM incubated for 30 mins by HRMS analysis; type: ADME; details: isolated protein, pH 7.4, 0.5 h
[12] = Prodrug conversion in BALB/c mouse xenografted with human hypoxic A549 cells assessed as rhodamine release by measuring increase in fluorescence intensity in body at 2.5 mg/kg,iv and measured upto 29 hrs by fluorescence imaging analysis; type: ADME, organism-based; details: in vivo
[13] = Biodistribution in stomach of BALB/c mouse xenografted with human hypoxic A549 cells assessed as drug uptake at 2.5 mg/kg,iv and measured after 29 hrs by fluorescence imaging analysis; type: ADME, organism-based; details: in vivo
[14] = Biodistribution in tumor of BALB/c mouse xenografted with human hypoxic A549 cells assessed as fold increase in drug uptake at 2.5 mg/kg,iv and measured after 29 hrs by fluorescence imaging analysis relative to control; type: ADME, organism-based, Neoplasm; details: in vivo
[15] = Prodrug conversion in Escherichia coli assessed as nitroreductase mediated drug degradation by measuring increase in fluorescence intensity at 10 uM in presence of dicoumarol by fluorescence analysis; type: ADME
[16] = Prodrug conversion in PBS at pH 7.4 assessed as Escherichia coli nitroreductase mediated drug degradation by measuring change in fluorescence intensity at 545nm at 10 uM incubated for 20 mins by fluorescence spectroscopic analysis; type: ADME; details: isolated protein, pH 7.4, 20 min
[17] = Prodrug conversion in human serum assessed as trypsin mediated drug degradation by measuring fluorescence production at 10 uM incubated for 30 mins by fluorescence spectroscopic analysis; type: ADME, cell-free; details: 0.5 h
[18] = Prodrug conversion in Escherichia coli assessed as nitroreductase mediated drug degradation by measuring fold increase in fluorescence intensity at 10 uM by fluorescence analysis relative to control; type: ADME
[19] = Prodrug conversion in human serum assessed as […] mediated drug degradation by measuring fluorescence production at 10 uM incubated for 30 mins by fluorescence spectroscopic analysis; type: ADME, cell-free; details: 0.5 h
[20] = Prodrug conversion in human serum assessed as glutamic acid mediated drug degradation by measuring fluorescence production at 10 uM incubated for 30 mins by fluorescence spectroscopic analysis; type: ADME, cell-free; details: 0.5 h
[21] = Prodrug conversion in PBS at 7.4 assessed as Escherichia coli nitroreductase mediated drug degradation by measuring norfloxacin metabolite formation at 10 uM incubated for 30 mins by HRMS analysis; type: ADME; details: isolated protein, pH 7.4, 0.5 h
[22] = Biodistribution in heart of BALB/c mouse xenografted with human hypoxic A549 cells assessed as drug uptake at 2.5 mg/kg,iv and measured after 29 hrs by fluorescence imaging analysis; type: ADME, organism-based; details: in vivo
[23] = Prodrug conversion in human serum assessed as Zn2+ ion mediated drug degradation by measuring fluorescence production at 10 uM incubated for 30 mins by fluorescence spectroscopic analysis; type: ADME, cell-free; details: 0.5 h
[24] = Prodrug conversion in BALB/c mouse xenografted with human hypoxic A549 cells assessed as rhodamine release by measuring fold increase in fluorescence intensity in tumor at 2.5 mg/kg,iv and measured after 17 hrs by fluorescence imaging analysis relative to control; type: ADME, organism-based; details: in vivo
[25] = Biodistribution in liver of BALB/c mouse xenografted with human hypoxic A549 cells assessed as drug uptake at 2.5 mg/kg,iv and measured after 29 hrs by fluorescence imaging analysis; type: ADME, organism-based; details: in vivo
[26] = Prodrug conversion in Bacillus subtilis assessed as nitroreductase mediated drug degradation by measuring increase in fluorescence intensity at 10 uM in presence of dicoumarol by fluorescence analysis; type: ADME
[27] = Prodrug conversion in human serum assessed as serine mediated drug degradation by measuring fluorescence production at 10 uM incubated for 30 mins by fluorescence spectroscopic analysis; type: ADME, cell-free; details: 0.5 h
[28] = Prodrug conversion in human serum assessed as hydroxyl radical mediated drug degradation by measuring fluorescence production at 10 uM incubated for 30 mins by fluorescence spectroscopic analysis; type: ADME, cell-free; details: 0.5 h
[29] = Biodistribution in intestine of BALB/c mouse xenografted with human hypoxic A549 cells assessed as drug uptake at 2.5 mg/kg,iv and measured after 29 hrs by fluorescence imaging analysis; type: ADME, organism-based; details: in vivo
[30] = Prodrug conversion in human serum assessed as Cu2+ ion mediated drug degradation by measuring fluorescence production at 10 uM incubated for 30 mins by fluorescence spectroscopic analysis; type: ADME, cell-free; details: 0.5 h
[31] = Biodistribution in spleen of BALB/c mouse xenografted with human hypoxic A549 cells assessed as drug uptake at 2.5 mg/kg,iv and measured after 29 hrs by fluorescence imaging analysis; type: ADME, organism-based; details: in vivo
[32] = Prodrug conversion in human serum assessed as FADH2 mediated drug degradation by measuring fluorescence production at 10 uM incubated for 30 mins by fluorescence spectroscopic analysis; type: ADME, cell-free; details: 0.5 h
[33] = Prodrug conversion in PBS at 7.4 assessed as Escherichia coli nitroreductase mediated drug degradation by measuring increase in fluorescence emission at 545nm at 10 uM in presence of NADH as cofactor by fluorescence spectroscopic analysis; type: ADME; details: isolated protein, pH 7.4, 10 µM
[34] = Prodrug conversion in human serum assessed as HNO mediated drug degradation by measuring fluorescence production at 10 uM incubated for 30 mins by fluorescence spectroscopic analysis; type: ADME, cell-free; details: 0.5 h
[35] = Prodrug conversion in human serum assessed as cysteine mediated drug degradation by measuring fluorescence production at 10 uM incubated for 30 mins by fluorescence spectroscopic analysis; type: ADME, cell-free; details: 0.5 h
[36] = Prodrug conversion in BALB/c mouse xenografted with human hypoxic A549 cells assessed as rhodamine release by measuring increase in fluorescence intensity in tumor at 2.5 mg/kg,iv and measured after 2.5 hrs by fluorescence imaging analysis; type: ADME, organism-based; details: in vivo
[37] = Prodrug conversion in human serum assessed as H2O2 mediated drug degradation by measuring fluorescence production at 10 uM incubated for 30 mins by fluorescence spectroscopic analysis; type: ADME, cell-free; details: 0.5 h
[38] = Prodrug conversion in human serum assessed as GSH mediated drug degradation by measuring fluorescence production at 10 uM incubated for 30 mins by fluorescence spectroscopic analysis; type: ADME, cell-free; details: 0.5 h
[39] = Prodrug conversion in pH 4 to 8 buffer assessed as Escherichia coli nitroreductase mediated drug degradation by measuring fluorescence intensity at 10 uM incubated for 30 mins by fluorescence spectroscopic analysis; type: ADME; details: isolated protein, pH 4, 0.5 h
[40] = Prodrug conversion in human serum assessed as NO mediated drug degradation by measuring fluorescence production at 10 uM incubated for 30 mins by fluorescence spectroscopic analysis; type: ADME, cell-free; details: 0.5 h
[41] = Prodrug conversion in human serum assessed as arginine mediated drug degradation by measuring fluorescence production at 10 uM incubated for 30 mins by fluorescence spectroscopic analysis; type: ADME, cell-free; details: 0.5 h
[42] = Prodrug conversion in tumor of BALB/c mouse xenografted with human hypoxic A549 cells assessed as fold increase in fluorescence intensity at 2.5 mg/kg,iv and measured after 29 hrs by fluorescence imaging analysis relative to control; type: ADME, organism-based, Neoplasm; details: in vivo
[43] = Prodrug conversion in human serum assessed as glutathione mediated drug degradation by measuring fluorescence production at 10 uM incubated for 30 mins by fluorescence spectroscopic analysis; type: ADME, cell-free; details: 0.5 h
[44] = Prodrug conversion in human serum assessed as pepsin mediated drug degradation by measuring fluorescence production at 10 uM incubated for 30 mins by fluorescence spectroscopic analysis; type: ADME, cell-free; details: 0.5 h
[45] = Prodrug conversion in human serum assessed as tyrosinase mediated drug degradation by measuring fluorescence production at 10 uM incubated for 30 mins by fluorescence spectroscopic analysis; type: ADME, cell-free; details: 0.5 h
[46] = Prodrug conversion in human serum assessed as ascorbic acid mediated drug degradation by measuring fluorescence production at 10 uM incubated for 30 mins by fluorescence spectroscopic analysis; type: ADME, cell-free; details: 0.5 h
[47] = Biodistribution in kidney of BALB/c mouse xenografted with human hypoxic A549 cells assessed as drug uptake at 2.5 mg/kg,iv and measured after 29 hrs by fluorescence imaging analysis; type: ADME, organism-based; details: in vivo

In the case of `CCN(CC)c1ccc2c(c1)Oc1cc(OC(=O)OCc3cc(C)cc(COC(=O)c4cn(CC)c5cc(N6CCNCC6)c(F)cc5c4=O)c3OCc3ccccc3)ccc1C21OC(=O)c2ccccc21` (centres undefined), the Drug metabolism [1] is reported as “Metabolite_Notdetected”, the Drug metabolism [2] is reported as “Metabolite_Notdetected” and the Drug uptake [3] is reported as “Not Active”. For the same molecule, the Activity [4] was “Dose-Dependent Effect”, the Drug metabolism [5] was “Metabolite_Notdetected” and the Activity [6] was “Active”. For the same molecule, the Drug metabolism [7] was “Metabolite_Notdetected”.

With `CCn1cc(C(=O)O)c(=O)c2cc(F)c(N3CCNCC3)cc21` the Activity [6] was “Active”.

In the case of `CCN(CC)c1ccc2c(c1)Oc1cc(OC(=O)OCc3cc(C)cc(COC(=O)c4cn(CC)c5cc(N6CCNCC6)c(F)cc5c4=O)c3OCc3ccc([N+](=O)[O-])cc3)ccc1C21OC(=O)c2ccccc21` (centres undefined), the Drug metabolism [1] is reported as “Metabolite_Detected”, the Drug metabolism [2] is reported as “Metabolite_Detected” and the Drug metabolism [8] is reported as “Metabolite_Notdetected”. The Drug metabolism [9] was “Metabolite_Notdetected”, the Drug metabolism [10] was “Metabolite_Notdetected” and the Drug metabolism [11] was “Metabolite_Detected”. The Drug metabolism [12] was “Metabolite_Detected”, the Drug uptake [3] was “Active” and the Drug uptake [13] was “Active”. The “fold change (FC)” value [14] was 4, the Drug metabolism [15] was “Metabolite_Notdetected” and the Drug metabolism [16] was “Metabolite_Detected”. For the same molecule, the Drug metabolism [17] was “Metabolite_Notdetected”, the “fold change (FC)” value [18] was 3.5 and the Drug metabolism [19] was “Metabolite_Notdetected”. The Activity [4] was “Dose-Dependent Effect”, the Drug metabolism [20] was “Metabolite_Notdetected” and the Drug metabolism [21] was “Metabolite_Detected”. The Drug uptake [22] was “Not Active”, the Drug metabolism [23] was “Metabolite_Notdetected” and the “fold change (FC)” value [24] was 4.1. For the same molecule, the Drug uptake [25] was “Not Active”, the Drug metabolism [26] was “Metabolite_Notdetected” and the Drug metabolism [27] was “Metabolite_Notdetected”. For the same molecule, the Drug metabolism [28] was “Metabolite_Notdetected”, the Drug uptake [29] was “Active” and the Drug metabolism [30] was “Metabolite_Notdetected”. For the same molecule, the Drug uptake [31] was “Not Active”, the Drug metabolism [32] was “Metabolite_Notdetected” and the Drug metabolism [33] was “Metabolite_Detected”. For the same molecule, the Drug metabolism [34] was “Metabolite_Notdetected”, the Drug metabolism [35] was “Metabolite_Notdetected” and the Drug metabolism [36] was “Metabolite_Detected”. The Activity [6] was “Active”, the Drug metabolism [37] was “Metabolite_Notdetected” and the Drug metabolism [38] was “Metabolite_Notdetected”. For the same molecule, the Drug metabolism [39] was “Metabolite_Detected”, the Drug metabolism [40] was “Metabolite_Notdetected” and the Drug metabolism [7] was “Metabolite_Detected”. For the same molecule, the Drug metabolism [41] was “Metabolite_Notdetected”, the “fold change (FC)” value [42] was 4.5 and the Drug metabolism [43] was “Metabolite_Notdetected”. The Drug metabolism [44] was “Metabolite_Notdetected”, the Drug metabolism [45] was “Metabolite_Notdetected” and the Drug metabolism [46] was “Metabolite_Notdetected”. The Drug uptake [47] was “Not Active”.
